Values after ≈ are worked out from the molar mass of the structure shown. Where two headings read alike, the source gives them in different places.
Key:
[1] = test system: Klebsiella pneumoniae M-248; assay: Sensitivity of strains: suppression of growth; type: cell-based; settings: Compound (1) 1.0%; antibiotics disc method
Acinetobacter B-681 = assay: Sensitivity of strains: suppression of growth; type: cell-based; settings: Compound (1) 1.0%; antibiotics disc method
[2] = test system: Citrobacter diversus B-678; assay: Sensitivity of strains: suppression of growth; type: cell-based; settings: Compound (1) 1.0%; antibiotics disc method
[3] = test system: Staphylococcus aureus B-685; assay: Sensitivity of strains: suppression of growth; type: cell-based; settings: Compound (1) 1.0%; antibiotics disc method
[4] = test system: Klebsiella pneumoniae M-A21; assay: Sensitivity of strains: suppression of growth; type: cell-based; settings: Compound (1) 1.0%; antibiotics disc method
Alkaligenes sp. B-689 = assay: Sensitivity of strains: suppression of growth; type: cell-based; settings: Compound (1) 1.0%; antibiotics disc method
[5] = test system: Corynebacterium diphtheriae B-670; assay: Sensitivity of strains: suppression of growth; type: cell-based; settings: Compound (1) 1.0%; antibiotics disc method
[6] = test system: Neisseria meningitidis M-A72; assay: Sensitivity of strains: suppression of growth; type: cell-based; settings: Compound (1) 1.0%; antibiotics disc method
Alkaligenes sp. B-667 = assay: Sensitivity of strains: suppression of growth; type: cell-based; settings: Compound (1) 1.0%; antibiotics disc method
Escherichia coli B-65 = assay: Sensitivity of strains: suppression of growth; type: cell-based; settings: Compound (1) 1.0%; antibiotics disc method
Escherichia coli B-683 = assay: Sensitivity of strains: suppression of growth; type: cell-based; settings: Compound (1) 1.0%; antibiotics disc method
Shigella sonnei B-720 = assay: Sensitivity of strains: suppression of growth; type: cell-based; settings: Compound (1) 1.0%; antibiotics disc method
[7] = test system: Salmonella paratyphi M-16469; assay: Sensitivity of strains: suppression of growth; type: cell-based; settings: Compound (1) 1.0%; antibiotics disc method
Acinetobacter B-677 = assay: Sensitivity of strains: suppression of growth; type: cell-based; settings: Compound (1) 1.0%; antibiotics disc method
[8] = test system: γ-hemolytic streptococcus B-672; assay: Sensitivity of strains: suppression of growth; type: cell-based; settings: Compound (1) 1.0%; antibiotics disc method
[9] = test system: Staphylococcus aureus B-674; assay: Sensitivity of strains: suppression of growth; type: cell-based; settings: Compound (1) 1.0%; antibiotics disc method
[10] = test system: β-hemolytic streptococcus B-624; assay: Sensitivity of strains: suppression of growth; type: cell-based; settings: Compound (1) 1.0%; antibiotics disc method
[11] = test system: Staphylococci epidermidis D-513; assay: Sensitivity of strains: suppression of growth; type: cell-based; settings: Compound (1) 1.0%; antibiotics disc method
[12] = test system: Pseudomonas aeruginosa B-601; assay: Sensitivity of strains: suppression of growth; type: cell-based; settings: Compound (1) 1.0%; antibiotics disc method
[13] = test system: Staphylococcus epidermidis BK-30; assay: Sensitivity of strains: suppression of growth; type: cell-based; settings: Compound (1) 1.0%; antibiotics disc method
[14] = test system: Conditional pathogenic enterobacteria gram-negative aerobic bacilli; type: cell-based; note: key: + sensitive strains; + moderately sensitive strains; − stable strains
Acinetobacter B-676 = assay: Sensitivity of strains: suppression of growth; type: cell-based; settings: Compound (1) 1.0%; antibiotics disc method
[15] = test system: Enterobacter aerogenes B-687; assay: Sensitivity of strains: suppression of growth; type: cell-based; settings: Compound (1) 1.0%; antibiotics disc method
[16] = test system: Salmonella typhimurium M-727; assay: Sensitivity of strains: suppression of growth; type: cell-based; settings: Compound (1) 1.0%; antibiotics disc method
[17] = test system: Shigella flexneri M-2A6907; assay: Sensitivity of strains: suppression of growth; type: cell-based; settings: Compound (1) 1.0%; antibiotics disc method
[18] = test system: Neisseria meningitidis M-6231; assay: Sensitivity of strains: suppression of growth; type: cell-based; settings: Compound (1) 1.0%; antibiotics disc method
[19] = test system: Staphylococcus aureus M-209; assay: Sensitivity of strains: suppression of growth; type: cell-based; settings: Compound (1) 1.0%; antibiotics disc method
Escherichia coli M-17 = assay: Sensitivity of strains: suppression of growth; type: cell-based; settings: Compound (1) 1.0%; antibiotics disc method
[20] = test system: Enterobacter aerogenes B-679; assay: Sensitivity of strains: suppression of growth; type: cell-based; settings: Compound (1) 1.0%; antibiotics disc method
Bacillus sp. B-575 = assay: Sensitivity of strains: suppression of growth; type: cell-based; note: key: + sensitive strains; + moderately sensitive strains; − stable strains
[21] = test system: Staphylococcus aureus M-12159; assay: Sensitivity of strains: suppression of growth; type: cell-based; settings: Compound (1) 1.0%; antibiotics disc method
[22] = test system: Yersinia pseudotuberculosis; type: cell-based; settings: Compound (1) 1.0%; antibiotics disc method
Mycobact tub. H.37RV = assay: Anti-TB effect, serial double dilution in liquid medium; type: cell-based, M tuberculosis; settings: 10-14 days incubation at 37° C.; read-out: Minimal Inhibitory Concentration
[23] = test system: Staphylococcus aureus ATCC 29213; assay: NCCLS broth microdilution MIC/MBC; type: cell-based; settings: for MIC: Staphylococcus aureus, ATCC29213
[24] = test system: Escherichia coli ATCC 25922; assay: NCCLS broth microdilution MIC/MBC; type: cell-based; settings: for MIC: Escherichia coli, ATCC25922
Serratia marcescens RMIT = assay: NCCLS broth microdilution MIC/MBC; type: cell-based; settings: for MIC: Serratia marcescens
[25] = test system: Pseudomonas aeruginosa ATCC 27853; assay: NCCLS broth microdilution MIC/MBC; type: cell-based; settings: for MIC: Pseudomonas aeruginosa, ATCC27853
Proteus vulgaris RMIT = assay: NCCLS broth microdilution MIC/MBC; type: cell-based; settings: for MIC: Proteus vulgaris
[26] = Table 9, 35° C., 24 hours, read-out: MIC
[27] = Table 17, 2 or 3 replicates, read-out: MIC

Compound	Suppression of Growth (+/−) [1]	Suppression of Growth (+/−) (Acinetobacter B-681)	Suppression of Growth (+/−) [3]	Suppression of Growth (+/−) [4]	Suppression of Growth (+/−) [5]	Suppression of Growth (+/−) [6]	Suppression of Growth (+/−) (Alkaligenes sp. B-667)	Suppression of Growth (+/−) (Acinetobacter B-677)	Suppression of Growth (+/−) [8]	Suppression of Growth (+/−) [10]	Suppression of Growth (+/−) [11]	Suppression of Growth (+/−) [13]	Suppression of Growth (+/−) (Acinetobacter B-676)	Suppression of Growth (+/−) [15]	Suppression of Growth (+/−) [18]	Suppression of Growth (+/−) [19]	Suppression of Growth (+/−) [20]	Suppression of Growth (+/−) [21]	Suppression of Growth (+/−) [22]	MIC (Mycobact tub. H.37RV) [µg/mL]	also measured
CCC[C@@H]1C[C@@H](C(=O)N[C@@H]([C@H]2O[C@H](SC)[C@H](O)[C@@H](O)[C@H]2O)[C@@H](C)O)N(C)C1 [Antibiotic 6, lincomycin]	−	−	−	−	−	−	−	−	−	−	+	−	−	−	−	−	−	−	−		Suppression of Growth (+/−) [2]: −; Suppression of Growth (+/−) (Alkaligenes sp. B-689): −; Suppression of Growth (+/−) (Escherichia coli B-65): +; Suppression of Growth (+/−) (Escherichia coli B-683): −; Suppression of Growth (+/−) (Shigella sonnei B-720): −; Suppression of Growth (+/−) [7]: −; Suppression of Growth (+/−) [9]: −; Suppression of Growth (+/−) [12]: −; Suppression of Growth (+/−) [14]: −; Suppression of Growth (+/−) [16]: −; Suppression of Growth (+/−) [17]: −; Suppression of Growth (+/−) (Escherichia coli M-17): −; Suppression of Growth (+/−) (Bacillus sp. B-575; Compound (1) 1.0%, antibiotics disc method): +
Cc1onc(-c2ccccc2)c1C(=O)N[C@@H]1C(=O)N2[C@@H]1SC(C)(C)[C@@H]2C(=O)O [Antibiotic 8, oxacillin]	−	−	+	−	−	−	−	−	−	−	+	+	−	−	−	−	−	+	−		Suppression of Growth (+/−) [2]: −; Suppression of Growth (+/−) (Alkaligenes sp. B-689): −; Suppression of Growth (+/−) (Escherichia coli B-65): −; Suppression of Growth (+/−) (Escherichia coli B-683): −; Suppression of Growth (+/−) (Shigella sonnei B-720): −; Suppression of Growth (+/−) [7]: −; Suppression of Growth (+/−) [9]: −; Suppression of Growth (+/−) [12]: −; Suppression of Growth (+/−) [16]: −; Suppression of Growth (+/−) [17]: −; Suppression of Growth (+/−) (Escherichia coli M-17): −; Suppression of Growth (+/−) (Bacillus sp. B-575): −
[H]/N=C(/N)N[C@H]1[C@H](O)[C@@H](O)[C@H](O[C@@H]2O[C@@H](C)[C@](O)(C=O)[C@H]2O[C@@H]2O[C@@H](CO)[C@H](O)[C@@H](O)[C@@H]2NC)[C@@H](N/C(N)=N\[H])[C@@H]1O [Antibiotic 12, streptomycin]	−	−	+	−	−	−	−	−	−	−	−	−	−	−	−	+	−	+	−	0.5 (≈ 0.86 µM)	Suppression of Growth (+/−) [14]: −
CCCCCCCCCCCCCCCC[N+](C)(C)C.[Br-] [CTAB, cetyl trimethyl ammonium bromide]																					MIC [23]: 16 µg/mL; MMC ([23]; Table 17, 2 or 3 replicates): 32 µg/mL; MIC [24]: 16 µg/mL; MMC ([24]; Table 17, 2 or 3 replicates): 16 µg/mL; MIC (Serratia marcescens RMIT): 128 µg/mL; MMC (Serratia marcescens RMIT; Table 17, 2 or 3 replicates): 128 µg/mL; MIC [25]: 512 µg/mL; MMC ([25]; Table 17, 2 or 3 replicates): >512 µg/mL; MIC (Proteus vulgaris RMIT): 128 µg/mL; MMC (Proteus vulgaris RMIT; Table 17, 2 or 3 replicates): 256 µg/mL
[H]/N=C(\N/C(=N/[H])NCCCCCCNC(=N)NC(=N)Nc1ccc(Cl)cc1)Nc1ccc(Cl)cc1 [Chlorhexidine]																					MIC [23, 26]: 2 µg/mL (≈ 3.96 µM); MIC [23, 27]: 2 µg/mL (≈ 3.96 µM); MMC ([23]; Table 9, 35° C., 24 hours): 8 µg/mL; MMC ([23]; Table 17, 2 or 3 replicates): 8 µg/mL; MIC [24, 26]: 2 µg/mL (≈ 3.96 µM); MIC [24, 27]: 2 µg/mL (≈ 3.96 µM); MMC ([24]; Table 9, 35° C., 24 hours): 4 µg/mL; MMC ([24]; Table 17, 2 or 3 replicates): 4 µg/mL; MIC (Serratia marcescens RMIT; [26]): 16 µg/mL (≈ 31.7 µM); MIC (Serratia marcescens RMIT; [27]): 16 µg/mL (≈ 31.7 µM); MMC (Serratia marcescens RMIT; Table 9, 35° C., 24 hours): 32 µg/mL; MMC (Serratia marcescens RMIT; Table 17, 2 or 3 replicates): 32 µg/mL; MIC [25, 26]: 32 µg/mL (≈ 63.3 µM); MIC [25, 27]: 32 µg/mL (≈ 63.3 µM); MMC ([25]; Table 9, 35° C., 24 hours): 64 µg/mL; MMC ([25]; Table 17, 2 or 3 replicates): 64 µg/mL; MIC (Proteus vulgaris RMIT; [26]): 6 µg/mL (≈ 11.9 µM); MIC (Proteus vulgaris RMIT; [27]): 6 µg/mL (≈ 11.9 µM); MMC (Proteus vulgaris RMIT; Table 9, 35° C., 24 hours): 128 µg/mL; MMC (Proteus vulgaris RMIT; Table 17, 2 or 3 replicates): 128 µg/mL
CC[C@@H](CO)NCCN[C@@H](CC)CO [Ethambutol]																				1 to 2.5 (≈ 4.89 to 12.2 µM)	
NNC(=O)c1ccncc1 [Isoniazid]																				0.02 to 0.1 (≈ 0.146 to 0.729 µM)	
